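Following 48 hours of exposure in 96-well plates, responses at five concentrations were used to interpolate endpoints linearly. GI50 is the concentration that inhibits growth by half.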 The source made the active and inactive calls. Rule as the data show it: active = GI50 up to about 1.1 µM and inactive = higher. Residues, ends and D or L forms follow the SMILES beside them. *: point of attachment. Fmoc = O=C(OCC1c2ccccc2-c2ccccc21)*; Boc = CC(C)(C)OC(=O)*
Assays:
Assay in all cases: NCI tumour cell line growth inhibition, 48 h
A498 = test system: A498
MDA-N = test system: MDA-N
PC-3 = test system: PC-3
SK-MEL-5 = test system: SK-MEL-5
UACC-257 = test system: UACC-257
ACHN = test system: ACHN
RPMI-8226 = test system: RPMI-8226
HCT-116 = test system: HCT-116
NCI/ADR-RES = test system: NCI/ADR-RES
SK-MEL-28 = test system: SK-MEL-28
Hs-578T = test system: Hs-578T
LOX IMVI = test system: LOX IMVI
SNB-19 = test system: SNB-19
SW-620 = test system: SW-620
CAKI-1 = test system: CAKI-1
K562 = test system: K562
OVCAR-4 = test system: OVCAR-4
DU-145 = test system: DU-145
786-0 = test system: 786-0
HCC 2998 = test system: HCC 2998

Structure (SMILES) | GI50 (A498) | GI50 (MDA-N) | GI50 (PC-3) | GI50 (SK-MEL-5) | GI50 (UACC-257) | GI50 (ACHN) | GI50 (RPMI-8226) | GI50 (HCT-116) | GI50 (NCI/ADR-RES) | GI50 (SK-MEL-28) | GI50 (Hs-578T) | GI50 (LOX IMVI) | GI50 (SNB-19) | GI50 (SW-620) | GI50 (CAKI-1) | GI50 (K562) | GI50 (OVCAR-4) | GI50 (DU-145) | GI50 (786-0) | GI50 (HCC 2998)
O=C1NC(Cc2c[nH]c3ccccc23)C(=O)N2C(c3ccccc3)c3[nH]c4ccccc4c3C[C@@H]12 (some centres undefined) | 29.8 µM (inactive) | 17.6 µM (inactive) | 18.7 µM (inactive) | 17.5 µM (inactive) | 25.4 µM (inactive) | 29.4 µM (inactive) | 20 µM (inactive) | 15.4 µM (inactive) | 21.6 µM (inactive) | 29.7 µM (inactive) | 16.5 µM (inactive) | 19.7 µM (inactive) | 34.1 µM (inactive) | 31.9 µM (inactive) | 25.5 µM (inactive) | 21 µM (inactive) | 26.9 µM (inactive) | 32.3 µM (inactive) | 16.2 µM (inactive) | –
O=C(NNC(=S)Nc1ccc(Cl)cc1)c1cc(-c2ccccc2)nc2ccccc12 | – | 3.25 µM (inactive) | 3.42 µM (inactive) | 3.73 µM (inactive) | 5.55 µM (inactive) | 10 µM (inactive) | 4.08 µM (inactive) | 3.06 µM (inactive) | 5.27 µM (inactive) | 3.31 µM (inactive) | 11.7 µM (inactive) | – | 6.89 µM (inactive) | 4.91 µM (inactive) | 4.71 µM (inactive) | 4.28 µM (inactive) | 10.5 µM (inactive) | 4.23 µM (inactive) | 4.71 µM (inactive) | 3.53 µM (inactive)
CC12CCCCC1=[N+]([O-])C(C)(C)N2O (centres undefined) | – | > 100 µM (inactive) | > 100 µM (inactive) | > 100 µM (inactive) | > 100 µM (inactive) | > 100 µM (inactive) | > 100 µM (inactive) | > 100 µM (inactive) | > 100 µM (inactive) | > 100 µM (inactive) | > 100 µM (inactive) | > 100 µM (inactive) | > 100 µM (inactive) | > 100 µM (inactive) | > 100 µM (inactive) | > 10 µM (inactive) | > 100 µM (inactive) | > 100 µM (inactive) | > 100 µM (inactive) | > 100 µM (inactive)
O=C(O)CSCc1cccc2ccccc12 | > 100 µM (inactive) | > 100 µM (inactive) | > 100 µM (inactive) | > 100 µM (inactive) | 62.1 µM (inactive) | > 100 µM (inactive) | > 100 µM (inactive) | > 100 µM (inactive) | > 100 µM (inactive) | > 100 µM (inactive) | > 100 µM (inactive) | > 100 µM (inactive) | > 100 µM (inactive) | > 100 µM (inactive) | > 100 µM (inactive) | > 100 µM (inactive) | > 100 µM (inactive) | > 100 µM (inactive) | > 100 µM (inactive) | –
Oc1ccc(Cl)cc1-c1nc(S)nc(-c2ccccc2)c1Cl | 51.9 µM (inactive) | > 100 µM (inactive) | > 100 µM (inactive) | > 61.7 µM (inactive) | > 100 µM (inactive) | > 90.8 µM (inactive) | > 100 µM (inactive) | > 96.4 µM (inactive) | > 100 µM (inactive) | > 100 µM (inactive) | 22.9 µM (inactive) | > 56.9 µM (inactive) | 69.2 µM (inactive) | > 100 µM (inactive) | 48.1 µM (inactive) | > 100 µM (inactive) | > 100 µM (inactive) | > 70.6 µM (inactive) | 34.7 µM (inactive) | –
CCCCc1ccc(Nc2nc3ncnc-3c[nH]2)cc1 | 26.1 µM (inactive) | 32.8 µM (inactive) | – | 16.6 µM (inactive) | 21.2 µM (inactive) | 15.2 µM (inactive) | 14.8 µM (inactive) | 20.2 µM (inactive) | 18.3 µM (inactive) | – | 5.52 µM (inactive) | 20.5 µM (inactive) | 18.2 µM (inactive) | 20.4 µM (inactive) | 19.4 µM (inactive) | 33.3 µM (inactive) | 25.3 µM (inactive) | 15.9 µM (inactive) | 25.6 µM (inactive) | 16.8 µM (inactive)
CN1CCN(C(=S)N(C(=O)c2ccco2)C2CCCCC2)CC1 | – | > 100 µM (inactive) | – | > 100 µM (inactive) | > 100 µM (inactive) | > 100 µM (inactive) | > 100 µM (inactive) | – | – | > 100 µM (inactive) | > 100 µM (inactive) | > 100 µM (inactive) | > 100 µM (inactive) | > 100 µM (inactive) | – | > 100 µM (inactive) | > 100 µM (inactive) | > 100 µM (inactive) | > 100 µM (inactive) | > 100 µM (inactive)
O=[N+]([O-])c1ccc2c(c1)=[N+]([O-])C1(CCCCC1)[N+]=2[O-] | – | 18 µM (inactive) | 17.5 µM (inactive) | 15 µM (inactive) | 15.1 µM (inactive) | 19.6 µM (inactive) | 10.2 µM (inactive) | 17.1 µM (inactive) | 26.2 µM (inactive) | 19.3 µM (inactive) | 21.5 µM (inactive) | 19.9 µM (inactive) | 36.4 µM (inactive) | 15.9 µM (inactive) | 20.4 µM (inactive) | 15.8 µM (inactive) | 11.6 µM (inactive) | 18.9 µM (inactive) | 11.5 µM (inactive) | 18.3 µM (inactive)
Cc1cc(Br)cc(C)c1NC(=O)C(=O)C1C(=O)C(CC2C(=O)c3ccccc3C2=O)C(=O)CC1(C)C (centres undefined) | – | > 100 µM (inactive) | 60.7 µM (inactive) | > 100 µM (inactive) | > 100 µM (inactive) | > 100 µM (inactive) | – | 83.2 µM (inactive) | 86.5 µM (inactive) | > 100 µM (inactive) | > 100 µM (inactive) | > 100 µM (inactive) | > 100 µM (inactive) | > 100 µM (inactive) | > 100 µM (inactive) | – | 39.5 µM (inactive) | > 100 µM (inactive) | > 100 µM (inactive) | > 100 µM (inactive)
CC(C)(C)OC(=O)NCCCCC(NC(=O)C(Cc1c[nH]c2ccccc12)NC(=O)OCC1c2ccccc2-c2ccccc21)C(=O)N1CCCC1C(=O)NCC(N)=O (centres undefined) (Fmoc-WK(Boc)PG-NH2; configuration not given here) | – | > 100 µM (inactive) | > 100 µM (inactive) | > 100 µM (inactive) | > 100 µM (inactive) | > 100 µM (inactive) | > 100 µM (inactive) | > 100 µM (inactive) | > 100 µM (inactive) | > 100 µM (inactive) | > 100 µM (inactive) | > 100 µM (inactive) | > 100 µM (inactive) | > 100 µM (inactive) | > 100 µM (inactive) | > 100 µM (inactive) | > 100 µM (inactive) | > 100 µM (inactive) | > 100 µM (inactive) | > 100 µM (inactive)
Cc1ccc(/C=N/Nc2ncccn2)s1 | – | > 100 µM (inactive) | > 100 µM (inactive) | > 100 µM (inactive) | > 100 µM (inactive) | > 100 µM (inactive) | > 100 µM (inactive) | > 100 µM (inactive) | > 100 µM (inactive) | > 100 µM (inactive) | > 100 µM (inactive) | > 100 µM (inactive) | > 100 µM (inactive) | > 100 µM (inactive) | > 100 µM (inactive) | > 10 µM (inactive) | > 100 µM (inactive) | – | > 100 µM (inactive) | > 100 µM (inactive)
COC(=O)c1ccc(NCC2=CC(=O)C=CC2=O)cc1O | 17.2 µM (inactive) | 16.4 µM (inactive) | 31.8 µM (inactive) | 24.4 µM (inactive) | 16.2 µM (inactive) | 13.8 µM (inactive) | – | 17.2 µM (inactive) | 18.1 µM (inactive) | 46 µM (inactive) | 48.6 µM (inactive) | 16.8 µM (inactive) | 19.7 µM (inactive) | 24.3 µM (inactive) | 18.6 µM (inactive) | 3.33 µM (inactive) | 16.6 µM (inactive) | 15.2 µM (inactive) | 15.7 µM (inactive) | –
C=C1CC(C)(COc2ccc3c(C)c(Cl)c(=O)oc3c2)OC1=O (centres undefined) | – | 0.762 µM (active) | 2.52 µM (inactive) | 1.43 µM (inactive) | 1.15 µM (inactive) | 2.82 µM (inactive) | 0.391 µM (active) | 0.408 µM (active) | 2.35 µM (inactive) | 2.42 µM (inactive) | 3.11 µM (inactive) | 0.964 µM (active) | 12.9 µM (inactive) | 0.461 µM (active) | 0.59 µM (active) | 0.518 µM (active) | 2.31 µM (inactive) | 2.4 µM (inactive) | 1.35 µM (inactive) | 1.81 µM (inactive)
CN1C(=O)C(=CNc2ccccc2Cl)C(=O)N(C)C1=O | > 100 µM (inactive) | > 100 µM (inactive) | 20.2 µM (inactive) | > 100 µM (inactive) | > 100 µM (inactive) | 24.5 µM (inactive) | 16.9 µM (inactive) | 18 µM (inactive) | > 100 µM (inactive) | – | > 100 µM (inactive) | 15.3 µM (inactive) | 23.8 µM (inactive) | > 100 µM (inactive) | > 100 µM (inactive) | 22.2 µM (inactive) | 18.3 µM (inactive) | – | 18.5 µM (inactive) | 18.7 µM (inactive)
CCOC1c2cc(OC)c(OC)cc2-c2ccc3ccccc3c2N1C (centres undefined) | – | 10.6 µM (inactive) | 5.15 µM (inactive) | 16.4 µM (inactive) | 16.6 µM (inactive) | 30.3 µM (inactive) | 10.7 µM (inactive) | 8.59 µM (inactive) | 29.7 µM (inactive) | 13.4 µM (inactive) | 6.4 µM (inactive) | 14.9 µM (inactive) | 9.86 µM (inactive) | 8.65 µM (inactive) | 34.1 µM (inactive) | 7.16 µM (inactive) | 19 µM (inactive) | 15 µM (inactive) | 16.8 µM (inactive) | 14.1 µM (inactive)

Source: ChEMBL document CHEMBL1201862, “PubChem BioAssay data set” (2004)
